According to US9006243B2, “HIV inhibiting 6-substituted pyrimidines” (Janssen R&D Ireland, priority 2006, dated 2015):

What was measured:
[1] = system: HIV strain MDR (L100I, K103N, Y181C, E138G, V179I, L2214F, V278V/I and A327A/V in HIV reverse transcriptase); assay: microbe, parasite or virus in culture; assay type: cell-based, HIV-1; settings: Human immunodeficiency virus 1, 72 h, read-out: MDR pEC50 (−log EC50) (converted)
Source text: (§1) Image analysis allows very sensitive detection of viral infection.
“MDR” refers to a strain that contains mutations L100I, K103N, Y181C, E138G, V179I, L2214F, V278V/I and A327A/V in HIV reverse transcriptase.

[2] = system: HIV strain IIIB (wild type); assay: microbe, parasite or virus in culture; settings: Human immunodeficiency virus 1, IIIB, 72 h, read-out: IIIB pEC50 (−log EC50) (converted)
Procedure: Compounds of the invention were tested for their potency against wild type virus and clinically isolated HIV strains harboring one or more mutations associated with resistance to reverse transcriptase inhibitors. Antiviral activity was evaluated using a cellular assay performed according to the following procedure.
The human T-cell line MT4 was engineered with Green Fluorescent Protein (GFP) and a HIV-specific promoter, HIV-1 long terminal repeat (LTR). This cell line, designated MT4 LTR-EGFP, can be used for the in vitro evaluation of anti-HIV activity of investigational compounds. In HIV-1 infected cells, the Tat protein is produced, which upregulates the LTR promotor and eventually leads to stimulation of the GFP reporter production, allowing to measure ongoing HIV-infection fluorometrically.
Analogously, MT4 cells were engineered with GFP and the constitutional cytomegalovirus (CMV) promotor. […] Cytotoxic investigational compounds reduce GFP levels of mock-infected MT4 CMV-EGFP cells.
The ratio of CC50 to EC50 is defined as the selectivity index (SI) and is an indication of the selectivity of the anti-HIV activity of the inhibitor. The ultimate monitoring of HIV-1 infection and cytotoxicity was done using a scanning microscope. Image analysis allows very sensitive detection of viral infection. Measurements were done before cell necrosis, which usually takes place about five days after infection, in particular measurements were performed three days after infection.
The columns IIIB, L100I, etc. in the table list the pEC50 (−log EC50) values against various strains IIIB, L100I, etc.; pSI lists the −log SI values.
Strain IIIB is wild type HIV strain.

HIV strain Y181C = assay: microbe, parasite or virus in culture; assay type: cell-based, HIV-1; settings: Human immunodeficiency virus 1, 72 h, read-out: Y181C pEC50 (−log EC50) (converted)
Source text: as §1

HIV strain K103N + Y181C = assay: microbe, parasite or virus in culture; assay type: cell-based, HIV-1; settings: Human immunodeficiency virus 1, 72 h, read-out: K103N + Y181C pEC50 (−log EC50) (converted)
Source text: as §1

HIV strain L100I + K103N = assay: microbe, parasite or virus in culture; assay type: cell-based, HIV-1; settings: Human immunodeficiency virus 1, 72 h, read-out: L100I + K103N pEC50 (−log EC50) (converted)
Source text: as §1

Row | Structure (SMILES) | EC50 [1] [nM] | melting point [°C] | EC50 [2] [nM] | EC50 (HIV strain Y181C) [nM] | EC50 (HIV strain K103N + Y181C) [nM] | EC50 (HIV strain L100I + K103N) [nM]
1 | Cc1cc(/C=C/C#N)cc(C)c1Nc1cc(-c2cccnc2)nc(Nc2ccc(C#N)cc2)n1 [Compound 1] | 1780 | 180 | 3.47 | 11 | 19.5 | 115
2 | Cc1cc(/C=C/C#N)cc(C)c1Nc1cc(C(=O)NCCF)nc(Nc2ccc(C#N)cc2)n1 [Compound 5] | 1410 | > 250 | 1.58 | 6.31 | 4.37 | 25.1
3 | Cc1cc(/C=C/C#N)cc(C)c1Nc1cc(C(=O)NCCC#N)nc(Nc2ccc(C#N)cc2)n1 [Compound 6] | 1860 | 250 | 8.91 | 20 |  | 40.7
4 | Cc1cc(/C=C/C#N)cc(C)c1Nc1cc(C(=O)NCc2ccncc2)nc(Nc2ccc(C#N)cc2)n1 [Compound 7] | 2340 | 202 | 4.17 | 16.6 | 17.8 | 
5 | Cc1cc(/C=C/C#N)cc(C)c1Nc1cc(C(=O)NCc2ccco2)nc(Nc2ccc(C#N)cc2)n1 [Compound 8] | 8130 | 256 | 5.5 | 18.6 | 31.6 | 85.1
6 | Cc1cc(/C=C/C#N)cc(C)c1Nc1cc(C(O)c2nccs2)nc(Nc2ccc(C#N)cc2)n1 (stereo not shown) [Compound 11] | 692 | 147 | 1.82 | 4.07 | 19.1 | 6.31
7 | Cc1cc(/C=C/C#N)cc(C)c1Nc1cc(/C=N/O)nc(Nc2ccc(C#N)cc2)n1 [Compound 34] | 501 | 220 | 3.98 | 10 | 3.98 | 12.6
